Data on two molecules can be found in patent US20200368174A1, “PARTICLES FOR TARGETED DELIVERY OF ACTIVE AGENTS INTO ADIPOSE STROMAL CELLS” (Texas Tech University System, priority 2018, published 2020).

Where no end group is shown, it is not given here. Side-chain parts run from the residue outwards. The star is where a group is joined. DSPE = CCCCCCCCCCCCCCCCCC(=O)OC[C@H](COP(=O)(O)OCCN*)OC(=O)CCCCCCCCCCCCCCCCC; MAL = maleimide

Data set [1] is described as follows: Aqueous solubility, 1 mg R in 1 mL 1×PBS. The note with it: visual observation. The data set is classed as physicochemical.
Data set [2] in a line: Chemical stability of R by HPLC under light or dark. The class given is physicochemical.
A short description of data set [3]: In vitro release, dialysis method (Example 1). The data set is classed as physicochemical. The note with it: for R released from dialysis bag: bag containing 0.5 mg R. On the procedure:
The dissolution medium was composed of 1×PBS and methanol (80:20, v/v). […] See Sun et al., Colloids Surf B Biointerfaces, 113 (2014) 15-24.
The release study was conducted in the dark to prevent light-induced R degradation. To minimize the effect of R stability, the dissolution medium was changed completely each hour for the first 2 hr, and every 2 hr for the rest 8 hr.

For another data set, the system named is 3T3-L1 white adipocytes. Description: Browning: marker mRNA by Real Time-PCR in differentiating adipocytes, basal or ISO-stimulated. The class given is cell-based, Murine. On the procedure: The cells were then stimulated with isoproterenol (ISO) for 6 hr. Relative mRNA expression of Uncoupling protein 1 (UCP-1), PPARγ, PPARγ co-activator 1α (PGC-1α), and PR-domain-containing 16 (PRDM16) were analyzed by semi-quantitative Real Time-PCR. Data=mean±SEM (n=3). E, Ethanol containing vehicle control for native R. R, rosiglitazone, a positive control. Letters of a-c or a′-c′ on top of the bars define differences among various forms of R under either basal or ISO-stimulated conditions, respectively. Different letters indicate significant differences among various R. *, p<0.05; **, p<0.01; ***, p<0.001 compared to their controls.
The cells were then stimulated with ISO for 6 hr. Relative mRNA expression of white marker insulin-like growth factor-binding protein 3 (IGFBP3) (FIG. 9A) and beige marker CD137 and transmembrane protein 26 (Tmem26) (FIG. 9B) were analyzed by semi-quantitative reverse transcription polymerase chain reaction (RT-PCR). Data=mean±SEM (n=3). E, Ethanol containing vehicle control for native R. R, rosiglitazone, a positive control. Letters of a-c or a′-c′ on top of the bars define differences among various forms of R under both basal and ISO-stimulated conditions, respectively. Different letters indicate significant differences among various R. *, p<0.05; **, p<0.01 compared to the controls.
Total RNA was extracted, cDNA was synthesized, and real-time PCR was performed using an ABI 7300HT instrument.
The hallmark of beige adipocytes is induced thermogenesis in response to stimuli, such as […] agonist ISO.

Data set [4] in a line: In vitro release, dialysis method (Example 2). The data set is classed as physicochemical. On the procedure: The mean particle size, PI and zeta potential were measured every day. The in vitro release behavior was measured in the dissolution medium, which was composed of 1× phosphate buffer saline (1×PBS, pH 7.4) and methanol (80:20, v/v), using a dialysis method. […] R released into the medium at each time point was determined using the Shimadzu high-performance liquid chromatography (HPLC) system (Shimadzu Corporation, Kyoto, Japan).

Data set [5] has as its system obese C57BL/6J mice. In words: Anti-obesity study: body weight, composition, food intake, fat pads, adipocyte size. The class given is in vivo. On the procedure:
(§1) Sixty male 6-week old C57BL/6J mice from Jackson's lab were fed with a high-fat diet (HFD) (45% energy from fat, Research Diets, Inc, D12451) for 9 weeks starting from week 1 (age 7 weeks old) to week 9 (age 15 weeks old). The mice were allowed to drink and eat the HFD ad libitum and maintained at 22-24° C., 45% relative humidity and a daily 12/12 hour light/dark cycle. […] Treatments were intravenously injected into mice via tail veins twice a week. Food intake and body weight were recorded weekly. Glucose tolerance test (GTT) was conducted at week 8 and the insulin tolerance test (ITT) and cold tolerance test were conducted at week 9.
After 9 weeks, mice were fasted overnight and humanely sacrificed. Blood was collected from the abdominal vein and brain, liver, lung, spleen, kidneys, skeletal muscle, gonadal white adipose tissue (G-WAT), inguinal WAT (I-WAT), retroperitoneal WAT (RP-WAT), and BAT of each mouse. Each tissue was cut into 3 pieces to be immediately frozen in liquid nitrogen followed by storage at −80° C. and fixed in 4% paraformaldehyde (for histology).
Body composition of mice was performed at week 0, 2, 4 and 5 of treatments using an EchoMRI™ Whole Body Composition Analyzer (MRI system) (EchoMRI LLC, Houston, Tex., USA).
H&E staining of I-WAT was conducted by the Department of Pathology of Texas Tech University Health Sciences Center. Briefly, the paraffin-embedded I-WAT sections (5 μm) were deparaffinized and rehydrated with xylene and ethanol. Sections were cleaned with water to skim reagent residue. Excess water was then blotted, the sections were incubated with Hematoxylin for 4 minutes, and washed several times using water. The sections were stained with Eosin and dehydrated. Finally, the sections were cleaned and covered with xylene-based mounting medium.

In data set [6] the test system is obese C57BL/6J mice. In words: Fasting insulin, glucose, HOMA-IR, leptin, GTT and ITT. The note with it: mouse, in vivo. On the procedure:
as §1
GTT and ITT were performed at end of treatments to assess whole-body glucose and insulin tolerance. […] Blood was collected and blood glucose concentrations were measured with a One Touch® glucometer from tail vein blood at 0, 15, 30, 60, 90, and 120 minutes post-injection. […] Blood glucose concentrations were measured as above at 0, 15, 30, 45, and 60 minutes post-injection. The area under the curve (AUC) was calculated. Blood glucose concentrations were plotted against time and the area under curve was calculated by following formula: […]
Fasting plasma glucose concentrations were measured by One Touch® glucometer. Fasting insulin concentrations were determined by an insulin Millipore® ELISA commercial kit (Millipore, Billerica, Mass., USA). […]

The conditions of data set [7]: cited from earlier work.
Data set [8] deals with primary stromal stem/progenitor cells derived from inguinal WAT (iWAT). The note with it: 10 μM, brown-like differentiation; cited from earlier work.
Data set [9] deals with decorin lacking the glycanation site (ΔDCN), on ΔDCN-transduced 3T3-L1 cells (ΔDCN cells). In words: cell-based or functional assay.
Data set [10] addresses endogenous surface ΔDCN receptor of mouse adipose stromal cells (ASC) in C57BL/6J white adipose tissue stromal vascular cells (mouse). In words: cell-based or functional assay.
In data set [11] the target is decorin lacking the glycanation site (ΔDCN), on ΔDCN-transduced 3T3-L1 cells (ΔDCN cells). In words: flow cytometry of ΔDCN cells incubated 2 h at 37° C. with DiD-labelled nanoparticles. On the technique in general: Flow cytometry measures light scatter and fluorescence of single cells or particles in a stream.

As for `Oc1ccc(/C=C/c2cc(O)cc(O)c2)cc1` [native R, 3,5,4′-trihydroxy-trans-stilbene], the “dissolution of 1 mg in 1 mL of 1×PBS” value in [1] was “hardly dissolved”. The R degradation rate in data set [2] (4° C., dark, 7 days) was 17%; in data set [2] (22° C., dark, 7 days) it was 48%; in data set [2] (37° C., dark, 7 days) it was 52%; in [2] (37° C., under the light, 6 days) it was 90%. For the same molecule, the R degraded was 40% in data set [2] (pH 7.4, 4° C., under the light, 7 days); 60% in data set [2] (pH 7.4, 22° C., under the light, 7 days); 96% in [2] (pH 7.4, 37° C., under the light, 7 days). Besides, the release behavior result in [3] (1×PBS:methanol 80:20, dark) is given as “burst release”. Further, the “R released from dialysis bag” value was “about 0.02 mg” in [3] (2-4 hr period), “about 0.17 mg” in [3] (after 1 hr) and “more than 0.13 mg” in [4] (first two hours). For the same molecule, the “accumulative released R mass” value in data set [3] (10 hr period) is on record as “reached a plateau”. The “Cox4a mRNA” value in the data set on 3T3-L1 white adipocytes (20 μM, ISO stimulated) is given as “increased”. In the data set with 3T3-L1 white adipocytes (ISO stimulated conditions), the “CD137 mRNA expression” value was “dose-dependently increased”. The Tmem26 expression entry in the data set with 3T3-L1 white adipocytes (ISO stimulation) is “increased”. For the same molecule, the “PRDM16 mRNA expression” value in the data set on 3T3-L1 white adipocytes (basal conditions) is reported as “did not change”. Moreover, in the data set on 3T3-L1 white adipocytes (basal conditions), the “Tmem26 mRNA expression” value is on record as “decreased”. Also, in the data set with 3T3-L1 white adipocytes (both basal and ISO stimulated conditions), the “IGFBP3 mRNA expression compared to controls” value was “dose-dependently decreased”. Besides, the R release result in data set [4] (after eight hours) is reported as “undetected”. The “released R as share of total R” value in [4] (first two hours) is “around 35%”. Further, the “mass of R released at every time point” value in data set [4] (following six hours) is on record as “lower than 0.02 mg”. Besides, the “diameter of adipocytes in I-WAT” value in the data set on obese C57BL/6J mice [5] (H&E sections, after 5 weeks) is “around 100 μm”. Besides, the body weight entry with obese C57BL/6J mice [5] (HFD mice, 15 mg/kg, IV twice a week, 5 weeks, vs saline) is given as “no significant reduction”. The “percentage of body fat (% body fat)” value with obese C57BL/6J mice [5] (HFD mice, 15 mg/kg, IV twice a week, 5 weeks, vs saline, listed as Free R, 15 mg/kg) is “slightly lower”; in the data set with obese C57BL/6J mice [5] (HFD mice, 15 mg/kg, IV twice a week, 5 weeks, vs saline, listed as free R, 15 mg/kg), “no significant reduction”. Besides, in the data set with obese C57BL/6J mice [5] (compared with saline group), the body weight gain result is reported as “decrease”. For the same molecule, the “adipocyte size / area of cells in I-WAT” value in the data set on obese C57BL/6J mice [5] (vs saline) is given as “no significant reduction”. The “fasting blood insulin and glucose concentrations compared to saline” value in the data set on obese C57BL/6J mice [6] is reported as “reduced”. Also, the “solubility of R in water and physiological fluid” value in data set [7] is given as “less than 0.1 mg/mL”. Moreover, in data set [8], the “mRNA expression of UCP1 and beige marker CD137 and Tmem26” value was “enhanced”.

B1: ligand-coated Rnano (L-Rnano): resveratrol-loaded lipid nanoparticle carrying DSPE-PEG5000-peptide, the linear ASC-targeting peptide … (SEQ ID NO: 2), on its … (peptide)
peptide: GSWKYWFGEGGC([MAL-PEG5000-DSPE])
modifications: also: displayed in many copies on lipid nanoparticle, copy number not given here
B1 gave a ΔDCN cells R content at 4° C. for 4 hours, against free R and Rnano in [9] of 2 fold. In addition, in [10], the DiD+ ASC after intravenous injection, DiD-L-Rnano mouse against DiD-Rnano treatment (flow cytometry; depot not given, I-WAT by context) is 9.3 fold; the DiD+ cell ratio among the ASC population after intravenous injection of DiD-L-Rnano (flow cytometry; depot not given, I-WAT by context) is 31.7%; the cellular R content of SVCs at 4° C., against free R-treated SVF cells worked out at 2.8 fold; the cellular R content of SVCs at 37° C., against free R-treated SVF cells was found to be 2.5 fold. In data set [10], this molecule had a percentage of DiD+ ASC in G-WAT after intravenous injection, DiD-L-Rnano mouse against DiD-Rnano mouse (flow cytometry) of 3.5 fold and a percentage of DiD+ ASC in RP-WAT after intravenous injection, DiD-L-Rnano mouse against DiD-Rnano mouse (flow cytometry) of 4.8 fold. In data set [11], this molecule returned a fold DiD positive rate of ΔDCN cells against DiD-labeled Rnano of 5 fold.
